The Kinase Knowledgebase extract (Sharma et al. 2016)

molecular target: MAPK14 (human) (UniProt Q16539); experiment: Enzyme Assay
Sequence (Q16539 whole entry, looked up): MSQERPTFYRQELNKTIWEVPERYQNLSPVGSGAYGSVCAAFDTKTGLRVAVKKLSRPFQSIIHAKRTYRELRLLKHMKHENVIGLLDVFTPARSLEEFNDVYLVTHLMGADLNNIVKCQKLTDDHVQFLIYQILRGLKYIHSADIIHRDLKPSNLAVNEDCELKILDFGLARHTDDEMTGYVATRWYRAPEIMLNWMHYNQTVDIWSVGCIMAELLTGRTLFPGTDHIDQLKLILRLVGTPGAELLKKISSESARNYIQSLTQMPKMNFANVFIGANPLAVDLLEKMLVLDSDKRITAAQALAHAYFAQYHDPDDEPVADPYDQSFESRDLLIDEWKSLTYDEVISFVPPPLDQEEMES

Row | IC50 | SMILES
1 | < 10 nM | CN1CCCC[C@H]1c1nnc2ccc(O[C@@H]3CC[C@H](NC(=O)Nc4cc(C(C)(C)C)nn4CCO)c4ccccc43)cn12
2 | < 10 nM | CN(C)CCCn1cc(-n2nc(C(C)(C)C)cc2NC(=O)N[C@H]2CC[C@@H](Oc3ccc4nnc(N5CCCCC5)n4c3)c3ccccc32)cn1
3 | < 10 nM | CCN(CC)CCOc1cccc(-n2nc(C(C)(C)C)cc2NC(=O)N[C@H]2CC[C@@H](Oc3ccc4nnc(N5CCCC[C@@H]5C)n4c3)c3ccccc32)c1
4 | < 10 nM | CC(C)(C)c1cc(NC(=O)N[C@H]2CC[C@@H](Oc3ccc4nnc(N5CCCCC5)n4c3)c3ccccc32)n(-c2cccc(CN3CCCCC3)c2)n1
5 | 100 to 500 nM | Cc1ccc(-n2nc(C(C)(C)C)cc2NC(=O)N[C@H]2CC[C@@H](OCCN3CCOCC3)c3ccccc32)cc1
6 | < 10 nM | Cc1ccc(-n2nc(C(C)(C)C)cc2NC(=O)N[C@H]2CC[C@@H](Oc3ccc4nnc([C@]5(CO)CCCN5C)n4c3)c3ccccc32)cc1
7 | < 10 nM | Cc1ccc(-n2nc(C(C)(C)C)cc2NC(=O)N[C@H]2CC[C@@H](Oc3ccc4nnc(C5CCNCC5)n4c3)c3ccccc32)cc1
8 | < 10 nM | Cc1ccc(-n2nc(C(C)(C)C)cc2NC(=O)N[C@H]2CC[C@@H](Oc3cc(C)c4nnc([C@@H]5CCCN5C)n4c3)c3ccccc32)cc1
9 | < 10 nM | Cc1ccc(-n2nc(C(C)(C)C)cc2NC(=O)N[C@H]2CC[C@@H](Oc3ccc4nnc(N5CCCC5)n4c3)c3ccccc32)cc1
10 | < 10 nM | Cc1ccc(-n2nc(C(C)(C)C)cc2NC(=O)N[C@H]2CC[C@H](Oc3ccc4nnc([C@@H]5CCCN5C)n4c3)c3ccccc32)cc1
11 | < 10 nM | C[C@@H]1CCC[C@H](C)N1c1nnc2ccc(O[C@@H]3CC[C@H](NC(=O)Nc4cc(C(C)(C)C)nn4-c4cnn(CCN5CCOCC5)c4)c4ccccc43)cn12
12 | < 10 nM | C[C@H]1CCCCN1c1nnc2ccc(O[C@@H]3CC[C@H](NC(=O)Nc4cc(C(C)(C)C)nn4-c4cccc(CN5CCCC5)c4)c4ccccc43)cn12
13 | < 10 nM | C[C@@H]1CCC[C@H](C)N1c1nnc2ccc(O[C@@H]3CC[C@H](NC(=O)Nc4cc(C(C)(C)C)nn4CCN4CCOCC4)c4ccccc43)cn12
14 | < 10 nM | Cc1ccc(-n2nc(C(C)(C)C)cc2NC(=O)N[C@H]2CC[C@@H](Oc3ccc4nnc(N5CCC(O)CC5)n4c3)c3ccccc32)cc1
15 | < 10 nM | CN1CCC[C@H]1c1nnc2ccc(O[C@H]3C[C@H](NC(=O)Nc4cc(C(C)(C)C)nn4-c4ccc(CO)cc4)c4ccccc43)cn12
16 | < 10 nM | COCCN(C)Cc1ccc(-n2nc(C(C)(C)C)cc2NC(=O)N[C@H]2CC[C@@H](Oc3ccc4nnc(N5CCCC[C@@H]5C)n4c3)c3ccccc32)cc1
17 | < 10 nM | CN1CCC[C@H]1c1nnc2ccc(O[C@@H]3CC[C@H](NC(=O)Nc4cc(C(C)(C)C)nn4-c4cccc(OCCO)c4)c4ccccc43)cn12
18 | < 10 nM | CN(C)CCOc1cccc(-n2nc(C(C)(C)C)cc2NC(=O)N[C@H]2CC[C@@H](Oc3ccc4nnc(N5CC6CCC(C6)C5)n4c3)c3ccccc32)c1
19 | < 10 nM | C[C@H]1CCCCN1c1nnc2ccc(O[C@@H]3CC[C@H](NC(=O)Nc4cc(C(C)(C)C)nn4-c4cccc(OCCN5CCC(F)CC5)c4)c4ccccc43)cn12
20 | < 10 nM | Cc1ccc(-n2nc(C(C)(C)C)cc2NC(=O)N[C@H]2CC[C@@H](Oc3ccc4nnc(N(C)CCO)n4c3)c3ccccc32)cc1
21 | < 10 nM | COc1c(NC(=O)N[C@H]2CC[C@@H](Oc3ccc4nnc(N5CCCCC5)n4c3)c3ccccc32)cc(C(C)(C)C)cc1NS(C)(=O)=O

Row | IC50 | SMILES
22 | < 10 nM | C[C@H]1CCCCN1c1nnc2ccc(O[C@@H]3CC[C@H](NC(=O)Nc4cc(C(C)(C)C)nn4-c4cccc(OCCN5CCCCC5)c4)c4ccccc43)cn12
23 | < 10 nM | Cc1ccc(-n2nc(C(C)(C)C)cc2NC(=O)N[C@H]2CC[C@@H](Oc3ccc4nnc([C@]5(C)CCCN5C)n4c3)c3ccccc32)cc1
24 | < 10 nM | Cc1ccc(-n2nc(C(C)(C)C)cc2NC(=O)N[C@H]2CC[C@@H](Oc3ccc4nnc(N5CCC(C(C)(C)O)CC5)n4c3)c3ccccc32)cc1
25 | < 10 nM | CC(C)(C)c1cc(NC(=O)N[C@H]2CC[C@@H](Oc3ccc4nnc(N5CCCCC5)n4c3)c3ccccc32)n(-c2cccc(SCCO)c2)n1
26 | < 10 nM | CCN(C)Cc1ccc(-n2nc(C(C)(C)C)cc2NC(=O)N[C@H]2CC[C@@H](Oc3ccc4nnc(N5CCCC[C@@H]5C)n4c3)c3ccccc32)cc1
27 | < 10 nM | C[C@H]1CCCCN1c1nnc2ccc(O[C@@H]3CC[C@H](NC(=O)Nc4cc(C(C)(C)C)nn4-c4cccc(CCN(C)C)c4)c4ccccc43)cn12
28 | < 10 nM | COCCN(C)Cc1cccc(-n2nc(C(C)(C)C)cc2NC(=O)N[C@H]2CC[C@@H](Oc3ccc4nnc(N5CCCC[C@@H]5C)n4c3)c3ccccc32)c1
29 | < 10 nM | C[C@H]1COCCN1c1nnc2ccc(O[C@@H]3CC[C@H](NC(=O)Nc4cc(C(C)(C)C)nn4-c4cccc(OCCN(C)C)c4)c4ccccc43)cn12
30 | < 10 nM | Cc1ccc(-n2nc(C(C)(C)C)cc2NC(=O)N[C@H]2CC[C@@H](Oc3ccc4nnc([C@@H]5CCCN5C(C)C)n4c3)c3ccccc32)cc1
31 | < 10 nM | C[C@H]1CCCCN1c1nnc2ccc(O[C@@H]3CC[C@H](NC(=O)Nc4cc(C(C)(C)C)nn4CCN4CCCCC4)c4ccccc43)cn12
32 | < 10 nM | CN(C)CCn1cc(-n2nc(C(C)(C)C)cc2NC(=O)N[C@H]2CC[C@@H](Oc3ccc4nnc(N5CCCCC5)n4c3)c3ccccc32)cn1
33 | < 10 nM | C[C@@H]1CCC[C@H](C)N1c1nnc2ccc(O[C@@H]3CC[C@H](NC(=O)Nc4cc(C(C)(C)C)nn4-c4cccc(CN5CCCC5)c4)c4ccccc43)cn12
34 | < 10 nM | Cc1ccc(-n2nc(C(C)(C)C)cc2NC(=O)N[C@H]2CC[C@@H](Oc3ccc4nnc(N5CCN(CCO)CC5)n4c3)c3ccccc32)cc1
35 | < 10 nM | CN1CCC[C@H]1c1nnc2ccc(O[C@@H]3CC[C@H](NC(=O)Nc4cc(C(C)(C)C)nn4-c4ccc(CO)cc4)c4ccccc43)cn12
36 | < 10 nM | C[C@@H]1CCCCN1c1nnc2ccc(O[C@@H]3CC[C@H](NC(=O)Nc4cc(C(C)(C)C)nn4-c4cccc(OCCN(C)C)c4)c4ccccc43)cn12
37 | < 10 nM | CN1CCC[C@H]1c1nnc2ccc(O[C@@H]3CC[C@H](NC(=O)Nc4cc(C(C)(C)C)nn4-c4cccc(SCCO)c4)c4ccccc43)cn12
38 | < 10 nM | CN1CCC[C@H]1c1nnc2ccc(O[C@@H]3CC[C@H](NC(=O)Nc4cc(C(C)(C)C)nn4-c4cccc(CO)c4)c4ccccc43)cn12
39 | < 10 nM | C[C@H]1CCCCN1c1nnc2ccc(O[C@@H]3CC[C@H](NC(=O)Nc4cc(C(C)(C)C)nn4-c4cccc(OCCN5C6CCCC5CC6)c4)c4ccccc43)cn12
40 | < 10 nM | C[C@@H]1CCC[C@H](C)N1c1nnc2ccc(O[C@@H]3CC[C@H](NC(=O)Nc4cc(C(C)(C)C)nn4-c4cccc(CN5CCN(C)CC5)c4)c4ccccc43)cn12
41 | < 10 nM | Cc1ccc(-c2nc(C(C)(C)C)[nH]c2NC(=O)N[C@H]2CC[C@@H](Oc3ccc4nnc(N5CCCCC5)n4c3)c3ccccc32)cc1
42 | < 10 nM | CC(C)(C)c1cc(NC(=O)N[C@H]2CC[C@@H](Oc3ccc4nnc(N5CCCCC5)n4c3)c3ccccc32)n(-c2cccc(OCCO)c2)n1

Row | IC50 | SMILES
43 | < 10 nM | Cc1ccc(-n2nc(C(C)(C)C)cc2NC(=O)N[C@H]2CC[C@@H](Oc3ccc4nnc([C@@H](C)N5CCOCC5)n4c3)c3ccccc32)cc1.Cc1ccc(-n2nc(C(C)(C)C)cc2NC(=O)N[C@H]2CC[C@@H](Oc3ccc4nnc([C@H](C)N5CCOCC5)n4c3)c3ccccc32)cc1
44 | < 10 nM | Cc1ccc(-n2nc(C(C)(C)C)cc2NC(=O)N[C@H]2CC[C@@H](Oc3ccc4nnc(N5CCC(CCO)CC5)n4c3)c3ccccc32)cc1
45 | < 10 nM | C[C@H]1CCCCN1c1nnc2ccc(O[C@@H]3CC[C@H](NC(=O)Nc4cc(C(C)(C)C)nn4-c4cccc(CCN5CCN(C)CC5)c4)c4ccccc43)cn12
46 | < 10 nM | C[C@H]1CCCCN1c1nnc2ccc(O[C@@H]3CC[C@H](NC(=O)Nc4cc(C(C)(C)C)on4)c4ccccc43)cn12
47 | < 10 nM | Cc1ccc(-n2nc(C(C)(C)C)cc2NC(=O)N[C@H]2CC[C@@H](Oc3ccc4nnc([C@@H]5CCCN5C)n4c3)c3ccccc32)cc1
48 | < 10 nM | CC(C)(C)c1cc(NC(=O)N[C@H]2CC[C@@H](Oc3ccc4nnc(N5CCCCC5)n4c3)c3ccccc32)n(-c2cccc(COCCO)c2)n1
49 | < 10 nM | C[C@H]1CCCCN1c1nnc2ccc(O[C@@H]3CC[C@H](NC(=O)Nc4cc(C(C)(C)C)nn4-c4ccc(CN5CCOCC5)cc4)c4ccccc43)cn12
50 | < 10 nM | C[C@@H]1CCC[C@H](C)N1c1nnc2ccc(O[C@@H]3CC[C@H](NC(=O)Nc4cc(F)cc(N5CCOCC5)c4)c4ccccc43)cn12
51 | < 10 nM | Cc1ccc(-n2nc(C(C)(C)C)cc2NC(=O)N[C@H]2CC[C@@H](Oc3ccc4nnc(-c5ccccc5CN5CCOCC5)n4c3)c3ccccc32)cc1
52 | < 10 nM | C[C@H]1CCCCN1c1nnc2ccc(O[C@@H]3CC[C@H](NC(=O)Nc4cc(C(C)(C)C)nn4-c4cccc(CCN5CCCOCC5)c4)c4ccccc43)cn12
53 | < 10 nM | C[C@H]1CCCCN1c1nnc2ccc(O[C@@H]3CC[C@H](NC(=O)Nc4cc(C(C)(C)C)nn4-c4cccc(CN5CCC(F)CC5)c4)c4ccccc43)cn12
54 | < 10 nM | Cc1ccc(-n2nc(C(C)(C)C)cc2NC(=O)N[C@H]2CC[C@@H](Oc3ccc4nnc([C@@H]5CC(C)(C)CN5C)n4c3)c3ccccc32)cc1
55 | < 10 nM | CCN1CCC[C@H]1c1nnc2ccc(O[C@@H]3CC[C@H](NC(=O)Nc4cc(C(C)(C)C)nn4-c4ccc(C)cc4)c4ccccc43)cn12
56 | < 10 nM | Cc1ccc(-n2nc(C(C)(C)C)cc2NC(=O)N[C@H]2CC[C@@H](Oc3ccc4nnc([C@@H]5CCCN(C)C5)n4c3)c3ccccc32)cc1
57 | < 10 nM | Cc1ccc(-n2nc(C(C)(C)C)cc2NC(=O)N[C@H]2CC[C@@H](Oc3ccc4nnc([C@H]5COCCN5C)n4c3)c3ccccc32)cc1
58 | < 10 nM | C[C@H]1CCCCN1c1nnc2ccc(O[C@@H]3CC[C@H](NC(=O)Nc4cc(C(C)(C)C)nn4CCN4CCN(C)CC4)c4ccccc43)cn12
59 | < 10 nM | Cc1ccc(-n2nc(C(C)(C)C)cc2NC(=O)N[C@H]2CC[C@@H](Oc3ccc4nnc(N5CCCCC5)n4c3)c3ccccc32)cn1
60 | < 10 nM | Cc1ccc(-n2nc(C(C)(C)C)cc2NC(=O)N[C@H]2CC[C@@H](Oc3ccc4nnc([C@@H]5CCN(C)C5)n4c3)c3ccccc32)cc1
61 | < 10 nM | C[C@H]1CCCCN1c1nnc2ccc(O[C@@H]3CC[C@H](NC(=O)Nc4cc(C(C)(C)C)nn4-c4cccc(OCCN5CCCN(C)CC5)c4)c4ccccc43)cn12
